Assay results from patent US9695155B2, “Herbicidal substituted pyrimidinyloxy benzene compounds” (E. I. DU PONT DE NEMOURS AND COMPANY, priority 2013, dated 2017).

Legend:
velvetleaf [1] = assay: Test A preemergence; type: in vivo, Abutilon theophrasti
Summary of the method: (§1)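 Pre- and postemergence greenhouse screen. Soil: loam + sand. Spray carrier: solvent mixture, non-phytotoxic, with surfactant. Post timing at 1–2 leaves, height 2–10 cm. Readout: visual injury on a 0–100 scale roughly 10 days after application, untreated plants as reference.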

corn [2] = assay: Test A postemergence; type: in vivo, Zea mays; settings: Zea mays, post-emergence, 240 h
Summary of the method: as §1

velvetleaf [3] = assay: Test A postemergence; type: in vivo, Abutilon theophrasti; settings: Abutilon theophrasti, post-emergence, 240 h, 0 to 100 scale where 0 is no effect and 100 is complete control, read-out: Plant response rating, Velvetleaf
Summary of the method: as §1

waterhemp = assay: Test C postemergence; type: in vivo, Amaranthus rudis; settings: Amaranthus tuberculatus, post-emergence
Summary of the method: (§2)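 Injury was assessed visually against controls 13 to 15 days after application, with 0 meaning no effect and 100 full control; missing entries are shown as a dash. Preemergence sprays hit seeded loam–sand soil, postemergence sprays hit 1- to 4-leaf plants.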

pigweed [4] = assay: Test A preemergence; type: in vivo, Amaranthus retroflexus; settings: Amaranthus retroflexus, pre-emergence
Summary of the method: as §1

pigweed [5] = assay: Test C postemergence; type: in vivo, Amaranthus retroflexus; settings: Amaranthus retroflexus, post-emergence
Summary of the method: as §2

kochia = assay: Test C postemergence; type: in vivo, Kochia scoparia; settings: Bassia scoparia, post-emergence
Summary of the method: as §2

johnsongrass = assay: Test C postemergence; type: in vivo, Sorghum halepense; settings: Sorghum halepense, post-emergence
Summary of the method: as §2

giant foxtail = assay: Test C postemergence; type: in vivo, Setaria faberii; settings: Setaria faberi, post-emergence
Summary of the method: as §2

large (Lg) crabgrass [6] = assay: Test A postemergence; type: in vivo, Digitaria sanguinalis; settings: Digitaria sanguinalis, post-emergence, 240 h
Summary of the method: as §1

corn [7] = assay: Test C postemergence; type: in vivo, Zea mays; settings: Zea mays, post-emergence
Summary of the method: as §2

Italian ryegrass = assay: Test C postemergence; type: in vivo, Lolium multiflorum; settings: Lolium multiflorum, post-emergence
Summary of the method: as §2

wild oat = assay: Test C postemergence; type: in vivo, Avena fatua; settings: Avena fatua, post-emergence
Summary of the method: as §2

soybean = assay: Test C postemergence; type: in vivo, Glycine max; settings: Glycine max, post-emergence
Summary of the method: as §2

pigweed [8] = assay: Test A postemergence; type: in vivo, Amaranthus retroflexus; settings: Amaranthus retroflexus, post-emergence, 0 to 100 scale where 0 is no effect and 100 is complete control, read-out: Plant response rating, Pigweed
Summary of the method: as §1

large (Lg) crabgrass [9] = assay: Test A preemergence; type: in vivo, Digitaria sanguinalis; settings: Digitaria sanguinalis, pre-emergence, 240 h
Summary of the method: as §1

barnyardgrass = assay: Test C postemergence; type: in vivo, Echinochloa crus-galli; settings: Echinochloa crus-galli, post-emergence
Summary of the method: as §2

morningglory = assay: Test A postemergence; type: in vivo, Ipomoea spp.; settings: Ipomoea, post-emergence, 240 h, 0 to 100 scale where 0 is no effect and 100 is complete control, read-out: Plant response rating, Morningglory
Summary of the method: as §1

[10] = 125 g ai/ha, 0 to 100 scale where 0 is no effect and 100 is complete control
[11] = 125 g ai/ha, 0 to 100 scale where 0 is no effect and 100 is complete control, read-out: Plant response rating, Crabgrass, Large
[12] = Postemergence, 31 g ai/ha, scale 0 to 100 (0 no effect, 100 complete control), 13 to 15 days
[13] = Postemergence, 62 g ai/ha, scale 0 to 100 (0 no effect, 100 complete control)

N#Cc1cccc(Oc2ncc(F)cn2)c1-n1cc(C(F)(F)F)cn1 [Compound 79, 3-[(5-fluoro-2-pyrimidinyl)oxy]-2-[4-(trifluoromethyl)-1H-pyrazol-1-yl]benzonitrile] was tested, and the “Plant response rating, Velvetleaf” value (velvetleaf [1]; [10]) was 100, the pest or weed control at 500 g/ha (velvetleaf [1]; Abutilon theophrasti, pre-emergence, 240 h, 500 g ai/ha, 0 to 100 scale, 0 no effect, 100 complete control, approx. 10 days, read-out: Velvetleaf plant response rating) was 100% and the Corn plant response rating (crop injury, 0 = no effect, 100 = complete kill) at 125 g/ha (corn [2]; [10]) was 80%. It also gave a plant injury at 500 g/ha (corn [2]; 500 g ai/ha, 0 to 100 scale, 0 no effect, 100 complete control, read-out: Plant response rating Corn) of 100%, a pest or weed control at 125 g/ha (velvetleaf [3]; 125 g ai/ha) of 100% and a pest or weed control at 500 g/ha (velvetleaf [3]; 500 g ai/ha) of 100%. The pest or weed control at 125 g/ha (waterhemp; 125 g ai/ha, postemergence, read-out: Plant response rating (0 to 100), Waterhemp) was 90%, the pest or weed control at 250 g/ha (waterhemp; 250 g ai/ha, postemergence, read-out: Plant response rating (0 to 100), Waterhemp) was 100% and the pest or weed control at 31 g/ha (waterhemp; Postemergence, 31 g ai/ha, scale 0 to 100 (0 no effect, 100 complete control), 13 to 15 days, read-out: Plant response rating, Waterhemp) was 75%. For the same molecule, the pest or weed control at 62 g/ha (waterhemp; Postemergence, 62 g ai/ha, scale 0 to 100 (0 no effect, 100 complete control), read-out: Plant response rating, Waterhemp) was 80%, the pest or weed control at 125 g/ha (pigweed [4]; 125 g ai/ha, 0 to 100 scale where 0 is no effect and 100 is complete control, read-out: Plant response rating, Pigweed) was 100% and the pest or weed control at 500 g/ha (pigweed [4]; 240 h, 500 g ai/ha, 0 to 100 scale, 0 no effect, 100 complete control, approx. 10 days, read-out: Pigweed plant response rating) was 100%. The pest or weed control at 125 g/ha (pigweed [5]; 125 g ai/ha, postemergence, read-out: Plant response rating (0 to 100), Pigweed) was 95%, the pest or weed control at 250 g/ha (pigweed [5]; 250 g ai/ha, postemergence, read-out: Plant response rating (0 to 100), Pigweed) was 98% and the pest or weed control at 31 g/ha (pigweed [5]; Postemergence, 31 g ai/ha, scale 0 to 100 (0 no effect, 100 complete control), 13 to 15 days, read-out: Plant response rating, Pigweed) was 75%. It also gave a pest or weed control at 62 g/ha (pigweed [5]; Postemergence, 62 g ai/ha, scale 0 to 100 (0 no effect, 100 complete control), read-out: Plant response rating, Pigweed) of 95%, a pest or weed control at 125 g/ha (kochia; 125 g ai/ha, postemergence, read-out: Plant response rating (0 to 100), Kochia) of 95% and a pest or weed control at 250 g/ha (kochia; 250 g ai/ha, postemergence, read-out: Plant response rating (0 to 100), Kochia) of 95%. For the same molecule, the pest or weed control at 31 g/ha (kochia; Postemergence, 31 g ai/ha, scale 0 to 100 (0 no effect, 100 complete control), 13 to 15 days, read-out: Plant response rating, Kochia) was 90%, the pest or weed control at 62 g/ha (kochia; Postemergence, 62 g ai/ha, scale 0 to 100 (0 no effect, 100 complete control), read-out: Plant response rating, Kochia) was 90% and the pest or weed control at 125 g/ha (johnsongrass; 125 g ai/ha, postemergence, read-out: Plant response rating (0 to 100), Johnsongrass) was 40%. The pest or weed control at 250 g/ha (johnsongrass; 250 g ai/ha, postemergence, read-out: Plant response rating (0 to 100), Johnsongrass) was 85%, the pest or weed control at 31 g/ha (johnsongrass; Postemergence, 31 g ai/ha, scale 0 to 100 (0 no effect, 100 complete control), 13 to 15 days, read-out: Plant response rating, Johnsongrass) was 5% and the pest or weed control at 62 g/ha (johnsongrass; Postemergence, 62 g ai/ha, scale 0 to 100 (0 no effect, 100 complete control), read-out: Plant response rating, Johnsongrass) was 10%. For the same molecule, the pest or weed control at 125 g/ha (giant foxtail; 125 g ai/ha, postemergence, read-out: Plant response rating (0 to 100), Foxtail, Giant) was 20%, the pest or weed control at 250 g/ha (giant foxtail; 250 g ai/ha, postemergence, read-out: Plant response rating (0 to 100), Foxtail, Giant) was 65% and the pest or weed control at 31 g/ha (giant foxtail; Postemergence, 31 g ai/ha, scale 0 to 100 (0 no effect, 100 complete control), 13 to 15 days, read-out: Plant response rating, Foxtail, Giant) was 10%. The pest or weed control at 62 g/ha (giant foxtail; Postemergence, 62 g ai/ha, scale 0 to 100 (0 no effect, 100 complete control), read-out: Plant response rating, Foxtail, Giant) was 10%, the pest or weed control at 125 g/ha (large (Lg) crabgrass [6]; [11]) was 100% and the pest or weed control at 500 g/ha (large (Lg) crabgrass [6]; 500 g ai/ha, 0 to 100 scale, 0 no effect, 100 complete control, read-out: Plant response rating Crabgrass, Large) was 100%. For the same molecule, the plant injury at 125 g/ha (corn [7]; 125 g ai/ha, postemergence, read-out: Plant response rating (0 to 100), Corn) was 15%, the plant injury at 250 g/ha (corn [7]; 250 g ai/ha, postemergence, read-out: Plant response rating (0 to 100), Corn) was 35% and the Corn plant response rating (crop injury, 0 = no effect, 100 = complete kill) at 31 g/ha (corn [7]; [12]) was 5%. For the same molecule, the Corn plant response rating (crop injury, 0 = no effect, 100 = complete kill) at 62 g/ha (corn [7]; [13]) was 5%, the pest or weed control at 125 g/ha (Italian ryegrass; 125 g ai/ha, postemergence, read-out: Plant response rating (0 to 100), Ryegrass, Italian) was 20% and the pest or weed control at 250 g/ha (Italian ryegrass; 250 g ai/ha, postemergence, read-out: Plant response rating (0 to 100), Ryegrass, Italian) was 20%. For the same molecule, the pest or weed control at 31 g/ha (Italian ryegrass; Postemergence, 31 g ai/ha, scale 0 to 100 (0 no effect, 100 complete control), 13 to 15 days, read-out: Plant response rating, Ryegrass, Italian) was 5%, the pest or weed control at 62 g/ha (Italian ryegrass; Postemergence, 62 g ai/ha, scale 0 to 100 (0 no effect, 100 complete control), read-out: Plant response rating, Ryegrass, Italian) was 10% and the pest or weed control at 125 g/ha (wild oat; 125 g ai/ha, postemergence, read-out: Plant response rating (0 to 100), Oat, Wild) was 20%. The pest or weed control at 250 g/ha (wild oat; 250 g ai/ha, postemergence, read-out: Plant response rating (0 to 100), Oat, Wild) was 50%, the pest or weed control at 31 g/ha (wild oat; Postemergence, 31 g ai/ha, scale 0 to 100 (0 no effect, 100 complete control), 13 to 15 days, read-out: Plant response rating, Oat, Wild) was 10% and the pest or weed control at 62 g/ha (wild oat; Postemergence, 62 g ai/ha, scale 0 to 100 (0 no effect, 100 complete control), read-out: Plant response rating, Oat, Wild) was 15%. For the same molecule, the Soybean plant response rating (crop injury, 0-100 scale) at 125 g/ha (soybean; 125 g ai/ha, postemergence, read-out: Plant response rating (0 to 100), Soybean) was 90%, the Soybean plant response rating (crop injury, 0-100 scale) at 250 g/ha (soybean; 250 g ai/ha, postemergence) was 95% and the Soybean plant response rating (crop injury, 0-100 scale) at 31 g/ha (soybean; [12]) was 65%. It also gave a Soybean plant response rating (crop injury, 0-100 scale) at 62 g/ha (soybean; [13]) of 85%, a pest or weed control at 125 g/ha (pigweed [8]; 125 g ai/ha) of 100% and a pest or weed control at 500 g/ha (pigweed [8]; 500 g ai/ha) of 100%. It also gave a pest or weed control at 125 g/ha (large (Lg) crabgrass [9]; [11]) of 100%, a pest or weed control at 500 g/ha (large (Lg) crabgrass [9]; 500 g ai/ha, 0 to 100 scale, 0 no effect, 100 complete control, approx. 10 days, read-out: Crabgrass, Large plant response rating) of 100% and a pest or weed control at 125 g/ha (barnyardgrass; 125 g ai/ha, postemergence, read-out: Plant response rating (0 to 100), Barnyardgrass) of 20%. It also gave a pest or weed control at 250 g/ha (barnyardgrass; 250 g ai/ha, postemergence, read-out: Plant response rating (0 to 100), Barnyardgrass) of 75%, a pest or weed control at 31 g/ha (barnyardgrass; Postemergence, 31 g ai/ha, scale 0 to 100 (0 no effect, 100 complete control), 13 to 15 days, read-out: Plant response rating, Barnyardgrass) of 5% and a pest or weed control at 62 g/ha (barnyardgrass; Postemergence, 62 g ai/ha, scale 0 to 100 (0 no effect, 100 complete control), read-out: Plant response rating, Barnyardgrass) of 5%. It also gave a pest or weed control at 125 g/ha (morningglory; 125 g ai/ha) of 100% and a pest or weed control at 500 g/ha (morningglory; 500 g ai/ha) of 100%.
